Values quoted from earlier work as cited in article PMC9667546, “Selective Inhibition of Bruton’s Tyrosine Kinase by a Designed Covalent Ligand Leads to Potent Therapeutic Efficacy in Blood Cancers Relative to Clinically Used Inhibitors” (ACS Pharmacology & Translational Science, 2022).

Key:
[1] = molecular target: T1, TEC (Homo sapiens, UniProt P42680); conditions: Table S3 heat map; ref SI 1-19; cited from earlier work
T1 construct: host or cells: HEK296T (so in the source)
T1 sequence (P42680 1-631): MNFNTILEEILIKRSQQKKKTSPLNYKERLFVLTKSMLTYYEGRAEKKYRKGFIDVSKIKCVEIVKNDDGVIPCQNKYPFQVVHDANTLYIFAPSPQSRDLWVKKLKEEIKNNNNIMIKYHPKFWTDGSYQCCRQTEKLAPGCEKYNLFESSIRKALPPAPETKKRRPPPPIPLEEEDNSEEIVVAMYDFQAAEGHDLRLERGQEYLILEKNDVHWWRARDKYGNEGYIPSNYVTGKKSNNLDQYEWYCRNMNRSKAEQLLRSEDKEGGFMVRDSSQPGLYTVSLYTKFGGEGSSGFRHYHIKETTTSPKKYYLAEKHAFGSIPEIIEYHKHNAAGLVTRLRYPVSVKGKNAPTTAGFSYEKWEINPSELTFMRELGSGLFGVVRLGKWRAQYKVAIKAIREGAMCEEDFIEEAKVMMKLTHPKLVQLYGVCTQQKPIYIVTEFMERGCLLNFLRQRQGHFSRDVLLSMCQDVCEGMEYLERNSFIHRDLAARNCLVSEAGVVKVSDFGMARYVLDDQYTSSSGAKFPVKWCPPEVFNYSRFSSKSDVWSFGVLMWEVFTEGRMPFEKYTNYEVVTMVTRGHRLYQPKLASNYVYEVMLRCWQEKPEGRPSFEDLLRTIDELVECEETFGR

[2] = molecular target: BTK (Homo sapiens, UniProt Q06187); set-up: purchased Promega Corporation V2941; conditions: Table S3 heat map; ref SI 1-19; read-out: IC50, BTK; cited from earlier work
Chain of BTK (Q06187 whole entry): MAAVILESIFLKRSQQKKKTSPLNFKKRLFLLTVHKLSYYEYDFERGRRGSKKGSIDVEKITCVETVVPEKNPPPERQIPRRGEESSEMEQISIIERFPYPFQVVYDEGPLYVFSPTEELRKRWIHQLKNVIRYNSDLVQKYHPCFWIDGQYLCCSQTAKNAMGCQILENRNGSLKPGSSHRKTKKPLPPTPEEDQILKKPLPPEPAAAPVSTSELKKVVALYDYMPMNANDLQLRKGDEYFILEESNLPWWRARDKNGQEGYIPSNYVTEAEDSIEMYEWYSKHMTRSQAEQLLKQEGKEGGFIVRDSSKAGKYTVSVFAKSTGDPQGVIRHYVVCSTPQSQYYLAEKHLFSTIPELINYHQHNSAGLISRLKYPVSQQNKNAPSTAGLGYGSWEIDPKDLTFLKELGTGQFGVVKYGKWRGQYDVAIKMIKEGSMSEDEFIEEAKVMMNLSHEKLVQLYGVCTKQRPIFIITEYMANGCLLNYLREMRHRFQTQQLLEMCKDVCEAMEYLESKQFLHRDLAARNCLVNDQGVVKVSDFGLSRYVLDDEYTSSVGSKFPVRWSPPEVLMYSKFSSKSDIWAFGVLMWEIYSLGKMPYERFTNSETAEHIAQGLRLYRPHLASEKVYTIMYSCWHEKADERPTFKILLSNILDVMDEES

[3] = molecular target: T2, ITK (Homo sapiens, UniProt Q08881); conditions: Table S3 heat map; ref SI 1-19; cited from earlier work
T2 construct: host or cells: HEK296T (so in the source)
T2 sequence (Q08881 1-620): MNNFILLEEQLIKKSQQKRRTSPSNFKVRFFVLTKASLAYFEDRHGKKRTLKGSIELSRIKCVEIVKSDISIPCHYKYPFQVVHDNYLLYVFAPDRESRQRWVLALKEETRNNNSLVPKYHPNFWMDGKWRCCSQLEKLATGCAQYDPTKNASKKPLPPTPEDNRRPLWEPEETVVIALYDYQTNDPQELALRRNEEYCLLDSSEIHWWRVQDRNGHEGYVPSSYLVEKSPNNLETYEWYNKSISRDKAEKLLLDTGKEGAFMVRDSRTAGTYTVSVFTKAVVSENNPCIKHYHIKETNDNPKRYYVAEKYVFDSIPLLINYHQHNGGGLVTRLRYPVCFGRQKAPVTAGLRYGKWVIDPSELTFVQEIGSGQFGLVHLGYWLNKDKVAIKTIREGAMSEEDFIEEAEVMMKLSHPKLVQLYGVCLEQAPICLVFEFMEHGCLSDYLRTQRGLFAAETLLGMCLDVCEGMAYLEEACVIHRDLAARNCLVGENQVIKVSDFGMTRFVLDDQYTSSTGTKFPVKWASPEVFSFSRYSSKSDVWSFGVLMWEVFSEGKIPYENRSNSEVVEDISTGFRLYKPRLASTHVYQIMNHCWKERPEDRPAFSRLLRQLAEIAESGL

[4] = tested on: Her2; conditions: read-out: IC50, Her2; Table S3 heat map; ref SI 1-19; cited from earlier work
[5] = molecular target: T3, TXK (Homo sapiens, UniProt P42681); conditions: Table S3 heat map; ref SI 1-19; cited from earlier work
T3 construct: host or cells: HEK296T (so in the source)
T3 sequence (P42681 1-527): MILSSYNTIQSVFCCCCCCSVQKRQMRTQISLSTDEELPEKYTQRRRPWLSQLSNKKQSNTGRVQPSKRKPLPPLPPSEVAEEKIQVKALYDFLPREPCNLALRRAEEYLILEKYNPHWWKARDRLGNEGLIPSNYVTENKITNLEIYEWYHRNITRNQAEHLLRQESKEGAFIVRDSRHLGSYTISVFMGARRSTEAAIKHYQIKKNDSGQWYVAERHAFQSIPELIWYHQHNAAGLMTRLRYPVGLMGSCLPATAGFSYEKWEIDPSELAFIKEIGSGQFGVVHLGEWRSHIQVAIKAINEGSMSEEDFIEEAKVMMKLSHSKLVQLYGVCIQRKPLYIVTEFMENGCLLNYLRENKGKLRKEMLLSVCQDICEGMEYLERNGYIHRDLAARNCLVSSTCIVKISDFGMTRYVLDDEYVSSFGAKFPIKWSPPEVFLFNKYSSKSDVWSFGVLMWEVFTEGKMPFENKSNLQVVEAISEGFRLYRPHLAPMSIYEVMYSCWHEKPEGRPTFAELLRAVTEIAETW

[6] = molecular target: T4, EGFR (Homo sapiens, UniProt P00533); conditions: Table S3 heat map; ref SI 1-19; cited from earlier work
T4 construct: host or cells: HEK296T (so in the source)
T4 sequence (P00533 25-1210): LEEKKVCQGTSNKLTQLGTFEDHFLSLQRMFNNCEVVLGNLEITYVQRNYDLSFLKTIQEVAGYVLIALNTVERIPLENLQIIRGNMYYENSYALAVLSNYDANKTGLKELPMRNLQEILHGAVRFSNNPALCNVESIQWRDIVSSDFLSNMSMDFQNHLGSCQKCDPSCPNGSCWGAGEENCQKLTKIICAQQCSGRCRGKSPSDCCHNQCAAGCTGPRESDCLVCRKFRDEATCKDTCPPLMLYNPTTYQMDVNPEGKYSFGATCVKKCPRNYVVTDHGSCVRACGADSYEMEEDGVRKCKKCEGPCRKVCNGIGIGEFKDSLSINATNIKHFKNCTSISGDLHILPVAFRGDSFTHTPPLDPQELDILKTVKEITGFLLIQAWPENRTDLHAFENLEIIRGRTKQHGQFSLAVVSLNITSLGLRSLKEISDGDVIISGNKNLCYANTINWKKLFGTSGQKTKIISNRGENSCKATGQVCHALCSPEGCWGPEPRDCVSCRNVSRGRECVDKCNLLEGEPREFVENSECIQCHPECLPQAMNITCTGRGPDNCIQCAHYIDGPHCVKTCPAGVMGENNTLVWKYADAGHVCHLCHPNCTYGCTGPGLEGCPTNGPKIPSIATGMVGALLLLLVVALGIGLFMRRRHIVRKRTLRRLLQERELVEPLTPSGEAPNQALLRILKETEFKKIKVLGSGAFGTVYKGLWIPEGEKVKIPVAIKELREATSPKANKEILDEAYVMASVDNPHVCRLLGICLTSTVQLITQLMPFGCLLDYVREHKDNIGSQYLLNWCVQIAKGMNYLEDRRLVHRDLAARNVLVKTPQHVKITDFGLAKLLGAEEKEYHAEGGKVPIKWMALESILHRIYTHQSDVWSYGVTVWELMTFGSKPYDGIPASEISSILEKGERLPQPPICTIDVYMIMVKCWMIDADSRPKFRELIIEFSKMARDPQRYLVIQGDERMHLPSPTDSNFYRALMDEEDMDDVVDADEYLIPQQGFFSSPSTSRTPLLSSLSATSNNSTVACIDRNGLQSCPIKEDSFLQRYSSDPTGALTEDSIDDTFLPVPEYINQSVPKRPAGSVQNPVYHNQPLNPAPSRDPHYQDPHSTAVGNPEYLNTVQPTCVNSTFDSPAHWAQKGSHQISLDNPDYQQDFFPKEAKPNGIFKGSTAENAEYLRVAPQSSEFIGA

[7] = molecular target: T5, JAK3 (Homo sapiens, UniProt P52333); conditions: Table S3 heat map; ref SI 1-19; cited from earlier work
T5 construct: host or cells: HEK296T (so in the source)
T5 sequence (P52333 whole entry): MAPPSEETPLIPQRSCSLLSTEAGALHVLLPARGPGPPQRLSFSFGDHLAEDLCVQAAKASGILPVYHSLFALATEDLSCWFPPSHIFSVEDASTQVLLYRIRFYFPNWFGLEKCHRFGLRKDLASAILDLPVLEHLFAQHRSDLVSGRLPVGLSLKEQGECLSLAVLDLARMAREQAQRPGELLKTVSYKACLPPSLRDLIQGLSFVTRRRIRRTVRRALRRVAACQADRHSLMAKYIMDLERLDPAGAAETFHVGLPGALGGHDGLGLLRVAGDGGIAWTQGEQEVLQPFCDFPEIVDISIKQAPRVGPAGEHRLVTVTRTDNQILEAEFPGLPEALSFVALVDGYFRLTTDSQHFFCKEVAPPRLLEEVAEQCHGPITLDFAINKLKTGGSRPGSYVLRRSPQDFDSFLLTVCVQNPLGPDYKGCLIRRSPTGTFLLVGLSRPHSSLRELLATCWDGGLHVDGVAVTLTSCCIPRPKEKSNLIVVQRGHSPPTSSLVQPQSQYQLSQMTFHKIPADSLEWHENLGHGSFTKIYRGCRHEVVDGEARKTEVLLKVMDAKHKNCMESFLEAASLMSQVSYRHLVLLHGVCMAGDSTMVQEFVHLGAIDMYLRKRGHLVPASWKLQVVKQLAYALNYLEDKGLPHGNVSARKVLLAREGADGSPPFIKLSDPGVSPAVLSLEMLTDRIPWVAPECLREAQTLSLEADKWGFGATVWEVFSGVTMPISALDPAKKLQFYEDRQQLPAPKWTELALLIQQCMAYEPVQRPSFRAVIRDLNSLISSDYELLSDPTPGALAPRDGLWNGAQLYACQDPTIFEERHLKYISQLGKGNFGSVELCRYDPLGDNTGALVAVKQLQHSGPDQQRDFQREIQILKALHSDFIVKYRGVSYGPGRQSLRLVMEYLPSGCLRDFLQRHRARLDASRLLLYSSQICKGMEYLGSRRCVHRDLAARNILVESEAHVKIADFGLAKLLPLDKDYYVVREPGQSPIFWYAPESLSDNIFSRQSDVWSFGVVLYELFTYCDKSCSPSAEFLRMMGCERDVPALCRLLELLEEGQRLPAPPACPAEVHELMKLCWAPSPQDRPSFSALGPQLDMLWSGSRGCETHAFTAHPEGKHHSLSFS

In the case of CC#CC(=O)N1CC[C@@H](n2cc(-c3ccc(Oc4c(F)cccc4F)cc3)c3c(N)n[nH]c(=O)c32)C1 [TG-1701], the IC50 [1] is listed as 4 nM, the IC50 [2] is listed as 3 nM and the IC50 [3] is listed as greater than 3000 nM. The IC50 [4] was greater than 3000 nM, the IC50 [5] was 136 nM and the IC50 [6] was 270 nM. For the same compound, the IC50 [7] was greater than 3000 nM.
